Data taken from PubChem BioAssay AID2060508 (Molecular Pharmacology Branch, DTP, NCI, 2025).

System: 454973-116-R2-J3-PDC spheroids, viability, % test/control
Test: Anticancer human tumor 454973-116-R2-J3-PDC patient-derived pancreatic carcinoma cell line growth inhibition [GQUAD]
Details: spheroids with HUVEC and MSC; for IC50: curve of first compound; for viability, T/C: stronger effect = lower value
How it was run: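 Viability of tumor cells grown as complex spheroids with endothelial and stromal cells, exposed to drug combinations. Top concentration at or near clinical Cmax (else 10 microM), diluted in half-log increments.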

[1] = second compound 0.0316 µM, first compound 0.0316 µM
[2] = second compound 0.0316 µM, first compound 0.1 µM
[3] = second compound 0.0316 µM, first compound 0.316 µM
[4] = second compound 0.0316 µM, first compound 1 µM
[5] = second compound 0.0316 µM, first compound 3.16 µM
[6] = second compound 0.0316 µM, first compound 10 µM
[7] = second compound 0.1 µM, first compound 0.0316 µM
[8] = second compound 0.1 µM, first compound 0.1 µM
[9] = second compound 0.1 µM, first compound 0.316 µM
[10] = second compound 0.1 µM, first compound 1 µM
[11] = second compound 0.1 µM, first compound 3.16 µM
[12] = second compound 0.1 µM, first compound 10 µM
[13] = second compound 0.316 µM, first compound 0.0316 µM
[14] = second compound 0.316 µM, first compound 0.1 µM
[15] = second compound 0.316 µM, first compound 0.316 µM
[16] = second compound 0.316 µM, first compound 1 µM
[17] = second compound 0.316 µM, first compound 3.16 µM
[18] = second compound 0.316 µM, first compound 10 µM
[19] = second compound 1 µM, first compound 0.0316 µM
[20] = second compound 1 µM, first compound 0.1 µM
[21] = second compound 1 µM, first compound 0.316 µM
[22] = second compound 1 µM, first compound 1 µM
[23] = second compound 1 µM, first compound 3.16 µM
[24] = second compound 1 µM, first compound 10 µM
[25] = second compound 3.16 µM, first compound 0.0316 µM
[26] = second compound 3.16 µM, first compound 0.1 µM
[27] = second compound 3.16 µM, first compound 0.316 µM
[28] = second compound 3.16 µM, first compound 1 µM
[29] = second compound 3.16 µM, first compound 3.16 µM
[30] = second compound 3.16 µM, first compound 10 µM
[31] = second compound 10 µM, first compound 0.0316 µM
[32] = second compound 10 µM, first compound 0.1 µM
[33] = second compound 10 µM, first compound 0.316 µM
[34] = second compound 10 µM, first compound 1 µM
[35] = second compound 10 µM, first compound 3.16 µM
[36] = second compound 10 µM, first compound 10 µM
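Note: spheroids exposed to compounds for seven days.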
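Throughout, for viability, T/C: 100% = DMSO vehicle control viability.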

Work on `CC(C)(O)C1CCC(Nc2ccc3ncc(-c4cccc(C(F)(F)F)c4)n3n2)CC1` (centres undefined) + CN(C)c1ccc(Nc2c3ccc(NC(=O)CCN4CCCC4)cc3nc3cc(NC(=O)CCN4CCCC4)ccc23)cc1 yielded an IC50 (second compound 0.0316 µM) of 1.78 µM, an IC50 (second compound 0.1 µM) of 1.73 µM and an IC50 (second compound 0.316 µM) of 1.54 µM. The IC50 (second compound 1 µM) was 1.25 µM, the IC50 (second compound 3.16 µM) was 0.739 µM and the IC50 (second compound 10 µM) was 0.808 µM. It also gave a viability, T/C [1] of 108%, a viability, T/C [2] of 101% and a viability, T/C [3] of 94.8%. It also gave a viability, T/C [4] of 77%, a viability, T/C [5] of 17.3% and a viability, T/C [6] of 29.5%. It also gave a viability, T/C [7] of 93.8%, a viability, T/C [8] of 90.3% and a viability, T/C [9] of 102%. It also gave a viability, T/C [10] of 72.6%, a viability, T/C [11] of 15.6% and a viability, T/C [12] of 34.5%. The viability, T/C [13] was 95.3%, the viability, T/C [14] was 90.3% and the viability, T/C [15] was 83.9%. It also gave a viability, T/C [16] of 62.9%, a viability, T/C [17] of 23.3% and a viability, T/C [18] of 33.2%. For the same molecule, the viability, T/C [19] was 87.9%, the viability, T/C [20] was 92% and the viability, T/C [21] was 84.5%. For the same molecule, the viability, T/C [22] was 55.8%, the viability, T/C [23] was 22.6% and the viability, T/C [24] was 30.5%. The viability, T/C [25] was 85.8%, the viability, T/C [26] was 82.7% and the viability, T/C [27] was 80.2%. It also gave a viability, T/C [28] of 39.4%, a viability, T/C [29] of 22.6% and a viability, T/C [30] of 31.6%. It also gave a viability, T/C [31] of 62.3%, a viability, T/C [32] of 64.8% and a viability, T/C [33] of 55%. It also gave a viability, T/C [34] of 48.1%, a viability, T/C [35] of 12.1% and a viability, T/C [36] of 10.4%.
`COc1ncnc(C2CC2)c1-c1ncc2cnn(Cc3ccc(-c4nc(C(F)(F)F)cn4C(C)C)cc3)c2n1` + CN(C)c1ccc(Nc2c3ccc(NC(=O)CCN4CCCC4)cc3nc3cc(NC(=O)CCN4CCCC4)ccc23)cc1 was tested, and the IC50 (second compound 0.0316 µM) was > 10 µM, the IC50 (second compound 0.1 µM) was > 10 µM and the IC50 (second compound 0.316 µM) was > 10 µM. The IC50 (second compound 1 µM) was > 10 µM, the IC50 (second compound 3.16 µM) was > 10 µM and the IC50 (second compound 10 µM) was > 10 µM. The viability, T/C [1] was 104%, the viability, T/C [2] was 113% and the viability, T/C [3] was 97.6%. The viability, T/C [4] was 102%, the viability, T/C [5] was 99.5% and the viability, T/C [6] was 102%. The viability, T/C [7] was 102%, the viability, T/C [8] was 114% and the viability, T/C [9] was 114%. For the same molecule, the viability, T/C [10] was 108%, the viability, T/C [11] was 84.8% and the viability, T/C [12] was 95.4%. For the same molecule, the viability, T/C [13] was 94.2%, the viability, T/C [14] was 104% and the viability, T/C [15] was 102%. For the same molecule, the viability, T/C [16] was 101%, the viability, T/C [17] was 91.6% and the viability, T/C [18] was 90.6%. The viability, T/C [19] was 96.3%, the viability, T/C [20] was 96.2% and the viability, T/C [21] was 101%. The viability, T/C [22] was 106%, the viability, T/C [23] was 94.2% and the viability, T/C [24] was 97.1%. It also gave a viability, T/C [25] of 86.2%, a viability, T/C [26] of 91.6% and a viability, T/C [27] of 105%. The viability, T/C [28] was 87%, the viability, T/C [29] was 93.5% and the viability, T/C [30] was 78.5%. For the same molecule, the viability, T/C [31] was 71%, the viability, T/C [32] was 69.4% and the viability, T/C [33] was 77.2%. It also gave a viability, T/C [34] of 66.5%, a viability, T/C [35] of 61.9% and a viability, T/C [36] of 50.8%.
